Consider one compound from ChEMBL document CHEMBL3259793, “Novel cycloalkenepyrazoles as inhibitors of bub1 kinase” (ACS Med Chem Lett, 2014).

The test addresses Mitotic checkpoint serine/threonine-protein kinase BUB1 (Homo sapiens, UniProt O43683). As to the kind of experiment: Inhibition of Bub1 kinase (unknown origin) by TR-FRET kinase assay.

Chain of Mitotic checkpoint serine/threonine-protein kinase BUB1 (O43683 whole entry): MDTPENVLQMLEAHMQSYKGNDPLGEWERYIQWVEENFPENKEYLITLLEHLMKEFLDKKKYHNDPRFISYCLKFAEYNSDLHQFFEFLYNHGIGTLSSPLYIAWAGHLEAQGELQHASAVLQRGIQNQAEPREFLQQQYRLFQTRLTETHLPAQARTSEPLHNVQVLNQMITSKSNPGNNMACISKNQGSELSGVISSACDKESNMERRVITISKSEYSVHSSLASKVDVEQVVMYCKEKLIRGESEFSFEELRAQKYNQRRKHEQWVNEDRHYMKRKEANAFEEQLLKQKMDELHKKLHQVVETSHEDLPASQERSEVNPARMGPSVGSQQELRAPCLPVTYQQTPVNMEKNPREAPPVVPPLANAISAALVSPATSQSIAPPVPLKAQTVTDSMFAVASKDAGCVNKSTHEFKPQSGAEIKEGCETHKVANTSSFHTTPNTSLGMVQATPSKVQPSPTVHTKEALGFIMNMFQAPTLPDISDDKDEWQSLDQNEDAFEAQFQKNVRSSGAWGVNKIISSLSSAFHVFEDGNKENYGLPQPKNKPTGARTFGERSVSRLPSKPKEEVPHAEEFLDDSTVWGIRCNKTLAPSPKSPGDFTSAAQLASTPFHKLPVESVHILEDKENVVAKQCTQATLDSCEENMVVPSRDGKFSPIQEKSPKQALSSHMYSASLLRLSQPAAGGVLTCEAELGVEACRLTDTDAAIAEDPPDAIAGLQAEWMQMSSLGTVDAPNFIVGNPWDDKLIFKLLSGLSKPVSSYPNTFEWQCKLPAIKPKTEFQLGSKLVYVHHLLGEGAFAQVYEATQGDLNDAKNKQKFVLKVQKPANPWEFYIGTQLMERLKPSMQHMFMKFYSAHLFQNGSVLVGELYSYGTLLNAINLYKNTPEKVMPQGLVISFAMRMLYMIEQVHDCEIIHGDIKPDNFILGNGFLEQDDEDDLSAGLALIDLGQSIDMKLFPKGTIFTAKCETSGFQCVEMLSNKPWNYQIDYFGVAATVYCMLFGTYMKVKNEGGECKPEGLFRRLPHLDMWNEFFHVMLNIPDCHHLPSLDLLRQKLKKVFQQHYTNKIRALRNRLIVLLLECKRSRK

`CCOC(=O)c1cnccc1Nc1nc(-c2nn(Cc3ccccc3F)c3c2CCC3)ncc1Oc1ccccc1C(=O)OCC`: the IC50 (commonly the concentration needed to halve the response being measured) turned out to be 500 nM.
